The values below come from patent US20230263792A1, “USE OF 2,3,5-SUBSTITUTED THIOPHENE COMPOUND FOR PREVENTING, ALLEVIATION, OR TREATING MASTOCYTOSIS” (PHAROS IBIO CO., LTD, priority 2020, published 2023).

The subject of experiment [1] is HMC-1.2 cell line (imatinib-resistant cell line, having c-kit G560V/D816V mutation). The experiment is described as follows: Growth inhibition of mastocytosis cell line HMC-1.2. In kind it is cell-based. The conditions noted are these: HMC-1.2, 72 hours. On the procedure: [Worded in the source for another cell line; this cell line is reported under the same test.] Specifically, 100 μl of a Ba/F3 cell line with a c-kit D816V mutation (FIG. 1) was added to each well of a 96-well plate at a concentration of 10,000 cells/100 μl. […] As the control compounds, imatinib and sunitinib which are c-kit inhibitors were used.

The next experiment relates to HMC-1.2 cell line. Description: Annexin V-PI FACS apoptosis analysis, HMC-1.2. In kind it is cell-based. To be noted: HMC-1.2, 0.1 and 1 μM, FIG. 7. On the procedure: Specifically, the c-kit D816V mutant Ba/F3 cell line was adjusted to a concentration of 1×10^6 cells/ml and treated with each of PHI-101 at concentrations of 0.1, 1 and 10 μM and the control compound sunitinib at concentrations of 1 and 10 μM for 24 hours. Thereafter, the medium was removed and the cells were washed once with 1 ml PBS. The PBS was removed by centrifugation at 1,000 rpm for 5 minutes. The cells were dissolved in 100 μl of PBS containing Ca^2+ and Mg^2+ and allowed to react with 5 μl of Annexin V for 20 minutes. After completion of the reaction, 400 μl of PBS containing Ca^2+ and Mg^2+ was added, and 5 μl of propidium iodide (PI) was added, and then the degree of apoptotic cell death was analyzed by FACS (fluorescence activated cell sorter) assay using a flow cytometer (FACS-C6, BD).
Specifically, the apoptotic effect of PHI-101 against the HMC-1.2 cell line was analyzed in the same manner as in Example 1-3, except that the HMC-1.2 cell line was treated with each of the control compounds at a concentration of 1 μM and PHI-101 at concentrations of 0.1 and 1 μM.

In experiment [2] the test system is c-kit phosphorylation and downstream signaling (p-STAT5, p-AKT, p-ERK) in HMC-1.2 cell line. The experiment is described as follows: Western blot of c-kit phosphorylation and downstream signaling in HMC-1.2. The experiment is classed as cell-based. To be noted: FIG. 6. How it is done:
Specifically, the c-kit D816V mutant Ba/F3 cell line was dispensed at a concentration of 1×10^6 cells/ml, treated with each of the control compounds and PHI-101 at concentrations of 0.1, 1 and 10 μM, and then cultured for 2 hours. Next, lysates of the cells were obtained using lysis buffer (50 mM Tris-HCl pH 7.5, 1% NP40, 1 mM EDTA, 150 mM NaCl, 5 mM, Na3VO4 and 2.5 mM NaF, and a protease inhibitor cocktail). Equal amounts of the cell lysates were electrophoresed using 8% SDS-PAGE gel at 100 V for 1 hour and 30 minutes, and the separated protein was electrically transferred to nitrocellulose membranes. The membranes were blocked with 5% skim milk at room temperature for 30 minutes, and allowed to react with primary antibodies (diluted 1:5,000), including p-c-kit tyrosine 719 (Y719), p-STAT3 tyrosine 705 (Y705) and p-ERK1/2 threonine 202/tyrosine 204 (T202/Y204) at 4° C. for 16 to 20 hours. […] Next, the membranes were washed three times with TBST for 5 minutes each time and treated with a chemiluminescent substrate reagent, and the expression level of the protein was measured by detecting luminescence with an X-ray film in the dark.
The inhibitory activities of control compounds and PHI-101 against c-kit phosphorylation and downstream signaling (p-STAT5, p-AKT, p-ERK) in a mastocytosis cell line were measured, and as the control compounds, imatinib and sunitinib were used. […]

The subject of experiment [3] is c-kit D816V mutant Ba/F3 cell line. Description: Cell cycle FACS assay, c-kit D816V Ba/F3. In kind it is cell-based. The conditions noted are these: 1 μM, 24 hours, FIGS. 4 and 5. On the procedure:
The c-kit D816V mutant Ba/F3 cell line was treated with 1 μM of PHI-101, and then the SubG1/GO-1 population was analyzed by cell cycle FACS assay.
Specifically, the c-kit D816V mutant Ba/F3 cell line was adjusted to a concentration of 1×10^6 cells/ml and treated with each of PHI-101 and the control compound sunitinib at a concentration of 1 μM for 24 hours. Thereafter, the medium was removed, and the c-kit D816V mutant Ba/F3 cell line was fixed in 70% ethanol at 4° C. for 24 hours, and then incubated in a PBS buffer solution containing 40 μg/ml of propidium iodide (PI) and 100 μg/ml of RNase for 30 minutes to completely stain the total DNA. Cell cycle analysis of the stained cells was performed using a flow cytometer (FACS-C6, BD). The proportion of cells in G0/G1 phase, S phase and G2/M phase was measured, and based on the measurement results, the SubG1/G0-1 population was determined.

The test system of experiment [4] is HMC-1.2 cells subcutaneous tumor. The experiment is described as follows: Tumor growth inhibition in mastocytosis mouse model with HMC-1.2 cell line. The experiment is classed as in vivo, NOD SCID female mice. How it is done:
As mice, 6-8-week-old NOD SCID female mice (18 to 22 g) (GemPharmatech Co., Ltd.) were prepared. Mice were acclimatized for 7 days before use in the experiment, and mice with abnormal health were excluded from the experiment. Mice were bred in a cage (300×180×150 mm) at a 22±3° C. and a relative humidity of 40% to 70% with a 12-hr light/12-hr dark cycle. Mice were allowed access to sterilized dry granular food (Beijing Keaoxieli Feed Co., Ltd., Beijing, China) and water ad libitum for the entire experimental period except for the period specified in the protocol.
50 ml of HMC-1.2 cells suspension-cultured in a 75T flask were placed in a conical tube and centrifuged at 1,200 rpm for 2 minutes, centrifuged with DPBS (Dulbecco's Phosphate-Buffered Saline, Welgene) at 1,200 rpm for 2 minutes, washed, and then suspended in RPMI1640 (Welgene) without antibiotics and fetal bovine serum (FBS).
Thereafter, when the average tumor volume reached 150 to 200 mm^3, 4 mice were assigned to each group so that the average tumor volume at each group and treatment time was the same between the groups.
In addition, the width and length of the tumor were measured using a caliper at 3-day intervals, and the tumor volume was calculated using the following equation.
(V: tumor volume, W: tumor width, and L: tumor length)
In addition, the mice were sacrificed 3 weeks after the start of oral administration of each drug and the tumor weight was measured using a digital scale. For each data, one-way ANOVA was used to test the significance of each group.

Where [5] appears, read: 7 mg/kg oral once daily for 3 weeks.
[6] abbreviates: 20 mg/kg oral once daily for 3 weeks.
Setting [7] is: 40 mg/kg oral once daily for 3 weeks.
Where [8] appears, read: 80 mg/kg oral once daily for 3 weeks.

SMILES strings stand for the structures.

For `NC(=O)Nc1cc(C#Cc2cccc(F)c2)sc1C(=O)N[C@H]1CCCNC1` [PHI-101], in experiment [1], it took 0.033 µM to inhibit growth by half (GI50). For the same compound, the “apoptosis induction (Annexin V-PI FACS)” value in the experiment with HMC-1.2 cell line was “strongly induced apoptosis even at a concentration of 1 μM”. The downstream signaling inhibition result in experiment [2] (0.1 μM) is “strongly inhibited downstream signaling”. For the same compound, in experiment [2] (0.01, 0.1 and 1 μM), the “c-kit phosphorylation and downstream signaling” value is “decreased c-kit phosphorylation and downstream signaling in a concentration-dependent manner”. Besides, the “SubG1/G0-1 population (cell cycle progression)” value in experiment [3] was “SubG1/G0-1 population was increased”. Also, the “Tumor growth inhibition (TGI) (%) Timor volume” value in experiment [4] (setting [5]) worked out at 30.2%; in experiment [4] (setting [6]), 43.6%; in experiment [4] (setting [7]), 68.4%; in experiment [4] (setting [8]) it was 78.5%. For the same compound, the “Tumor growth inhibition (TGI) (%) Tumor weight” value came to 32.7% in experiment [4] (setting [5]), 51.6% in experiment [4] (setting [6]), 68.3% in experiment [4] (setting [7]) and 82.7% in experiment [4] (setting [8]). For the same compound, the “growth of mastocytosis cells in mouse model” value in experiment [4] (40 mg/kg or more, versus control compounds, FIGS. 9 to 12) is recorded as “significantly inhibited compared to that in the group treated with each control compound”.
